# Measurements published in patent US8592466B2, “Methods for treating conditions caused by higher-than-normal dopaminergic activity in basal ganglia” (Neuropill, Inc., priority 2008, dated 2013).
# Assay: Phase I cocaine interaction study: heart rate and blood pressure
# Conditions: cocaine 20 mg and 40 mg i.v., most P-values<0.05
compound,measurement,value
"COC(=O)[C@H]1[C@@H](OC(=O)c2ccccc2)C[C@@H]2CC[C@H]1N2C [cocaine, reference compound]",HR/SBP/DBP after cocaine infusion,significant elevation
